In patent publication US20230063457A1, “DNA-PK INHIBITING COMPOUNDS” (Provincial Health Services Authority, priority 2019, published 2023):
pIC50: −log10 of the molar value.

Columns and labels:
[1] = biological target: DNA-PK kinase (Homo sapiens, UniProt P78527); test: Inhibition of DNA-PK kinase activity (ADP-Glo); format: biochemical; conditions: averaged values over all measurements on all batches; 150 μM ATP, 1 hour at 25° C.
Protocol: Inhibition of DNA-PK Kinase Activity Assay buffer was 50 mM Hepes pH 7.5 containing 0.1 mg/ml BSA (albumin from bovine serum), 50 μM DTT (dithiothreitol), 20 mM MgCl2 and 10 μg/ml calf thymus DNA (activation buffer). Kinase reaction was carried out in OptiPlate 384 plates (PerkinElmer 6007299). All compounds tested were dissolved in dimethyl sulfoxide (DMSO) and further dilutions were made in assay buffer. Final DMSO concentration was 1% (v/v). Pre-incubation consisted of compound (1% DMSO in control and blank wells) and 24 ng/well DNA-PK kinase to allow the compounds to bind the enzyme (with buffer in the blank wells) for 15 minutes; after this time 150 μM Adenosine-5′-triphosphate (ATP) and 0.2 μg/μl DNA-PK substrate were added to commence the kinase reaction. Incubations were carried out for 1 hour at 25° C. Kinase activity was determined by using ADP-Glo™ reagent from Promega according to the manufacturer's instructions. The light generated was measured using a luminometer (EnVision, PerkinElmer). Signal obtained in the wells containing blank samples was subtracted from all other wells and IC50 values were determined by fitting a sigmoidal curve to % inhibition of control versus Log10 compound concentration.

[2] = biological target: T1, Phospho-DNA-PK in FaDu Cells (Homo sapiens, UniProt P78527); test: Effect of compounds on phospho-DNA-PK in FaDu cells (MesoScale sandwich immunoassay); format: cell-based; conditions: 1 hour pre-incubation, 1 μg/ml Neocarzinostatin 2 hours, averaged values, read-out: MSD FaDu IC50
T1 construct: host or cells: FaDu
Protocol: Effect of Compounds on Phospho-DNA-PK in FaDu Cells
All compounds tested were dissolved in DMSO and further dilutions were made in culture medium. Final DMSO concentration was 0.3% (v/v). The human FaDu cells (ATCC) were cultured in MEM medium supplemented with Glutamax and 10% fetal calf serum (PAA). Cells were routinely maintained at densities of 0.2×10^6 cells per ml at 37° C. in a humidified 5% CO2, 95% air atmosphere. Cells were passaged twice a week, splitting back to obtain the low density. Cells were seeded in 96 well plates (Corning 3904) at 1×10^6 cells per ml media in a volume of 50 μl per well. Seeded cells were incubated at 37° C. in a humidified 5% CO2, 95% air atmosphere for 24 hours. Compounds were added (25 μl) to the cells and pre-incubated for 1 hour. 1 μg/ml DNA-damaging agent Neocarzinostatin (NCS) was added (25 μl) to a final volume of 100 μl and incubated for 2 hours at 37° C. in a humidified 5% CO2, 95% air atmosphere. After this period of time plates were removed from the incubator and the 100 μl dilutions were removed from the wells gently, prior to the addition of 75 μl cold RIPA lysis buffer with protease and phosphatase inhibitors to achieve the cells lysis, followed by shaking on a plate shaker at 4° C. for 30 minutes. At the end of this incubation, lysate was assessed for phospho-DNA-PK levels by sandwich immune-assay carried out in anti-mouse antibody coated MesoScale plates. […] Signal obtained in the wells containing blank samples was subtracted from all other wells and IC50 values were determined by fitting a sigmoidal curve to % inhibition of control versus Logo compound concentration.

pIC50 [1] | pIC50 [2] | Compound
8.00 | 6.57 | CNc1cnc2cc(N3CCOCC3)nc(O[C@H]3CC[C@@H](n4ccnc4)CC3)c2c1 [Parent compound 171]
8.05 | 6.44 | NC(=O)[C@H]1CC[C@@H](Oc2nc(N3CCOCC3)cc3ncccc23)CC1 [Example 3]
8.52 | 6.12 | c1cnc2cc(N3CCOCC3)nc(O[C@H]3CC[C@@H](c4nnn[nH]4)CC3)c2c1 [Example 74]
7.44 | 6.15 | c1cnc(NCC2CN(c3nc(N4CCOCC4)cc4ncccc34)C2)nc1 [Parent compound 98]
6.99 | 5.00 | C[C@H]1CN(c2ncn[nH]2)CC[C@@H]1Oc1nc(N2CCOCC2)cc2ncccc12 (single isomer, unassigned) [Parent compound 158]
8.22 | 6.98 | c1cnc2cc(N3CCOCC3)nc(O[C@H]3CC[C@@H](n4ccnc4)CC3)c2c1 [Example 77]
6.81 | 4.94 | c1cncc(NCC2CCN(c3nc(N4CCOCC4)cc4ncccc34)CC2)c1 [Example 133]
7.09 | 4.98 | Fc1ccnc(NCC2CCN(c3nc(N4CCOCC4)cc4ncccc34)CC2)c1 [Example 132]
7.20 | 5.14 | c1cnnc(NCC2CCN(c3nc(N4CCOCC4)cc4ncccc34)CC2)c1 [Parent compound 131]
6.80 | 5.18 | CC(C)(C)OC(=O)N1CCN(c2nc(N3CCOCC3)cc3ncccc23)CC1 [Example 19]
8.40 | 6.66 | Oc1cnc2cc(N3CCOCC3)nc(O[C@H]3CC[C@@H](c4cscn4)CC3)c2c1 [Example 167]
6.77 | 5.31 | CNC(=O)N1CC(COc2nc(N3CCOCC3)cc3ncccc23)C1 [Example 148]
7.57 | 5.48 | O=C1NCC(CNc2nc(N3CCOCC3)cc3ncccc23)CO1 (stereo not shown) [Parent compound 97]
8.52 | 6.58 | C[C@@H]1CN(c2cc3ncccc3c(O[C@H]3CC[C@@H](c4nc[nH]n4)CC3)n2)CCO1 [Example 66]
7.24 | 5.43 | Oc1cnc2cc(N3CCOCC3)nc(O[C@H]3CC[C@@H](c4cccs4)CC3)c2c1 [Example 164]
6.94 | 5.18 | Oc1ccnc(NCC2CCN(c3nc(N4CCOCC4)cc4ncccc34)CC2)n1 [Example 113]
7.18 | 5.72 | CN1CC(CNc2nc(N3CCOCC3)cc3ncccc23)COC1=O (stereo not shown) [Parent compound 150]
7.03 | 6.06 | F[C@H]1CN(c2ncn[nH]2)CC[C@@H]1Oc1nc(N2CCOCC2)cc2ncccc12 [Example 156]
7.30 | 5.46 | c1cnc(NCC2CCN(c3nc(N4CCOCC4)cc4ncccc34)C2)nc1 (stereo not shown) [Example 11]
8.70 | 7.21 | c1cnc2cc(N3CCOCC3)nc(O[C@H]3CC[C@@H](c4nnc[nH]4)CC3)c2c1 [Example 71]
6.96 | 5.74 | CS(=O)(=O)N1CCC(Oc2nc(N3CCOCC3)cc3ncccc23)CC1 [Example 143]
6.83 | 5.35 | c1cnc(N2CCC3CN(c4nc(N5CCOCC5)cc5ncccc45)CC32)nc1 (stereo not shown) [Example 17]
6.69 | 4.86 | c1cnc(N2CCC(Oc3nc(N4CCOCC4)cc4ncccc34)CC2)nc1 [Example 127]
7.52 | 5.86 | c1cnc(N2CC(COc3nc(N4CCOCC4)cc4ncccc34)C2)nc1 [Example 128]
7.26 | 5.76 | c1cnc2cc(N3CCOCC3)nc(OC[C@H]3CC[C@@H](c4ncn[nH]4)CC3)c2c1 [Example 73]
8.40 | 6.72 | Cn1cc([C@H]2CC[C@@H](Oc3nc(N4CCOCC4)cc4ncc(O)cc34)CC2)cn1 [Example 166]

pIC50 [1] | pIC50 [2] | Compound
7.28 | 4.94 | CN(C)C(=O)c1ccnc(NCC2CCN(c3nc(N4CCOCC4)cc4ncccc34)CC2)n1 [Example 106]
6.85 | 5.72 | CS(=O)(=O)[C@H]1CC[C@@H](Oc2nc(N3CCOCC3)cc3ncccc23)CC1 [Example 82]
6.92 | 5.10 | N#Cc1cccnc1NCC1CCN(c2nc(N3CCOCC3)cc3ncccc23)CC1 [Example 115]
7.12 | 5.32 | Cc1ccnc(NCC2CCN(c3nc(N4CCOCC4)cc4ncccc34)CC2)n1 [Example 109]
7.41 | 6.04 | Cc1cnc(NCC2CCN(c3nc(N4CCOCC4)cc4ncccc34)CC2)nc1 [Example 102]
7.96 | 6.66 | Cn1cnc([C@H]2CC[C@@H](Oc3nc(N4CCOCC4)cc4ncccc34)CC2)n1 [Example 72]
7.49 | 6.05 | C[C@H]1COCCN1c1cc2ncccc2c(O[C@H]2CC[C@@H](c3nc[nH]n3)CC2)n1 [Example 67]
7.32 | 5.60 | c1cnc(NCCC2CCN(c3nc(N4CCOCC4)cc4ncccc34)CC2)nc1 [Example 130]
7.51 | 5.93 | Oc1cnc2cc(N3CCOCC3)nc(O[C@H]3CC[C@@H](c4ccccc4)CC3)c2c1 [Example 165]
8.00 | 6.29 | c1cnc2cc(N3CCOCC3)nc(O[C@H]3CC[C@@H](n4nccn4)CC3)c2c1 [Example 81]
8.70 | 6.68 | [2H]C1([2H])OC([2H])([2H])C([2H])([2H])N(c2cc3ncccc3c(O[C@H]3CC[C@@H](c4nc[nH]n4)CC3)n2)C1([2H])[2H] [Example 65]
7.92 | 6.62 | Cn1ncnc1[C@H]1CC[C@@H](Oc2nc(N3CCOCC3)cc3ncccc23)CC1 [Example 56]
8.10 | 6.63 | COc1cnc2cc(N3CCOCC3)nc(O[C@H]3CC[C@@H](n4cc(F)cn4)CC3)c2c1 [Parent compound 170]
6.75 |  | Fc1cccnc1NCC1CCN(c2nc(N3CCOCC3)cc3ncccc23)CC1 [Example 135]
6.94 |  | CC1CN(c2ncn[nH]2)CCC1Oc1nc(N2CCOCC2)cc2ncccc12 (stereo not shown) [Parent compound 159]
6.43 |  | CC(C)(C)OC(=O)NCCC1CCN(c2nc(N3CCOCC3)cc3ncccc23)CC1 [Example 30]
6.63 |  | O=C(Nc1ncccn1)N1CCN(c2nc(N3CCOCC3)cc3ncccc23)CC1 [Parent compound 146]
6.56 |  | O=C(NC1CCN(c2nc(N3CCOCC3)cc3ncccc23)CC1)c1ncccn1 [Example 27]
6.33 |  | c1cnc2cc(N3CCOCC3)nc(OC3CCCCC3)c2c1 [Example 9]
6.68 |  | c1cnc(NCCC2CCCN(c3nc(N4CCOCC4)cc4ncccc34)C2)nc1 (stereo not shown) [Example 23]
7.32 |  | C[C@H]1CN(c2cc3ncccc3c(O[C@H]3CC[C@@H](c4nc[nH]n4)CC3)n2)CCO1 [Example 68]
6.59 |  | CC(=O)NCC1CCN(c2nc(N3CCOCC3)cc3ncccc23)CC1 [Parent compound 140]
5.69 |  | c1cncc(C2CCCCN2c2nc(N3CCOCC3)cc3ncccc23)c1 (stereo not shown) [Example 85]
6.38 |  | c1cnc(NCCCOc2nc(N3CCOCC3)cc3ncccc23)nc1 [Example 7]
6.46 |  | c1cnc(N2CCC23CCN(c2nc(N4CCOCC4)cc4ncccc24)C3)nc1 (stereo not shown) [Example 29]
6.27 |  | CC(C)(C)OC(=O)NCC1CCN(c2nc(N3CCOCC3)cc3ncccc23)CC1 [Example 33]
